Measurements taken from patent EP4678638A1, “NEW E3 UBIQUITIN LIGASE LIGAND, PROTEIN DEGRADATION AGENT AND USE THEREOF” (priority 2023, dated 2024).

Legend:
RSK1 = molecular target: T1, RSK1 (Homo sapiens, UniProt Q15418); experiment: Western blot degradation of RSK1 (hPBMC); type: cell-based; conditions: Table D8
T1 construct: evaluate the effects of the compounds of the present disclosure on the expression of target proteins in cells; endogenous in cells; host or cells: hPBMC
Protocol: (§1) Conventional Western blot assay was performed to evaluate the effects of the compounds of the present disclosure on the expression of target proteins in cells.
(§2) (1) Cell Seeding and Protein Harvesting: The selected cells were processed according to the cell seeding procedure and protein harvesting procedure in Table III-2. Table III-2 Cell Seeding and Protein Harvesting Procedures
(§3) (2) To the collected supernatant, 5X SDS sample loading buffer was added, followed by denaturation at 95°C for 5 minutes. The denatured samples were then separated by SDS-PAGE electrophoresis on a polyacrylamide gel. Proteins were transferred to a nitrocellulose membrane (0.45 µm NC membrane), blocked with blocking buffer at room temperature for 1 hour, and subjected to antibody incubation and development procedures according to the antibody manufacturer's instructions (Cell Signaling Technology).
(§4) Half-Maximal Degradation Concentration value (the drug concentration required for degrading proteins by 50%, abbreviated as DC50) reads method: comparing the grayscale values of Western blot bands from drug-treated samples with those from blank DMSO-treated controls, and identifying the drug concentration range at which the grayscale value is half that of the DMSO-treated control bands.
(§5) DC50 values can be calculated using ImageJ software to measure grayscale values of Western blot bands from drug-treated samples. The concentration-response curve is fitted to estimate the drug concentration corresponding to half the grayscale value.
(§6) Target protein remaining (%) refers to the percentage of target protein remaining in hPBMC cells after treatment with protein degrader compounds.
(§7) Calculation method for target protein remaining (%): Use ImageJ software to measure grayscale values of Western blot bands from drug (protein degrader)-treated samples. The grayscale value of drug-treated bands is divided by that of internal control protein bands, and the resulting quotient is normalized to obtain the relative percentage of remaining target protein after protein degrader treatment.
(§8) Target protein degradation rate (%) = 100% - target protein remaining (%).

RSK2 = molecular target: T2, RSK2 (Homo sapiens, UniProt P51812); experiment: Western blot degradation of RSK2 (hPBMC); type: cell-based; conditions: Table D8
T2 construct: evaluate the effects of the compounds of the present disclosure on the expression of target proteins in cells; endogenous in cells; host or cells: hPBMC
Protocol: as §1, §2, §3, §4, §5, §6, §7, §8

T1 sequence (Q15418 whole entry): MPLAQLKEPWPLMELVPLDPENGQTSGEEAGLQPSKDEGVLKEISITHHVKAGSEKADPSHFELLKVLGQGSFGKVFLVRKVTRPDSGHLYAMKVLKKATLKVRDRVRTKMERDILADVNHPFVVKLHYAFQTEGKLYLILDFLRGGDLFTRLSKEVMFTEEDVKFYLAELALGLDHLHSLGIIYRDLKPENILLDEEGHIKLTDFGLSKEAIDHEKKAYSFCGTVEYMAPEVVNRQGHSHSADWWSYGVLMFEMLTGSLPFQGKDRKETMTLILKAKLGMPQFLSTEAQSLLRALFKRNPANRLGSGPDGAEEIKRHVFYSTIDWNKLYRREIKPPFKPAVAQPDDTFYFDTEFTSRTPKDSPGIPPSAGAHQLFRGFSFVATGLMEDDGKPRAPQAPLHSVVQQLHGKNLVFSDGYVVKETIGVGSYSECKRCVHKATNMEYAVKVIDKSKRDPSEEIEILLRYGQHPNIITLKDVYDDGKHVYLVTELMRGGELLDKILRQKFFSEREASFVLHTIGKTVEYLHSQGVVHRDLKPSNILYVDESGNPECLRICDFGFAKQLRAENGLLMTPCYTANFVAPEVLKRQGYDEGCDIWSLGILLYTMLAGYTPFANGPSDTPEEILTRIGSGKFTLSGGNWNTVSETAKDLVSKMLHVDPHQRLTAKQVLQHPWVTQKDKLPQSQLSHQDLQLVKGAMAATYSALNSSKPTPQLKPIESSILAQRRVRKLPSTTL
T2 sequence (P51812 whole entry): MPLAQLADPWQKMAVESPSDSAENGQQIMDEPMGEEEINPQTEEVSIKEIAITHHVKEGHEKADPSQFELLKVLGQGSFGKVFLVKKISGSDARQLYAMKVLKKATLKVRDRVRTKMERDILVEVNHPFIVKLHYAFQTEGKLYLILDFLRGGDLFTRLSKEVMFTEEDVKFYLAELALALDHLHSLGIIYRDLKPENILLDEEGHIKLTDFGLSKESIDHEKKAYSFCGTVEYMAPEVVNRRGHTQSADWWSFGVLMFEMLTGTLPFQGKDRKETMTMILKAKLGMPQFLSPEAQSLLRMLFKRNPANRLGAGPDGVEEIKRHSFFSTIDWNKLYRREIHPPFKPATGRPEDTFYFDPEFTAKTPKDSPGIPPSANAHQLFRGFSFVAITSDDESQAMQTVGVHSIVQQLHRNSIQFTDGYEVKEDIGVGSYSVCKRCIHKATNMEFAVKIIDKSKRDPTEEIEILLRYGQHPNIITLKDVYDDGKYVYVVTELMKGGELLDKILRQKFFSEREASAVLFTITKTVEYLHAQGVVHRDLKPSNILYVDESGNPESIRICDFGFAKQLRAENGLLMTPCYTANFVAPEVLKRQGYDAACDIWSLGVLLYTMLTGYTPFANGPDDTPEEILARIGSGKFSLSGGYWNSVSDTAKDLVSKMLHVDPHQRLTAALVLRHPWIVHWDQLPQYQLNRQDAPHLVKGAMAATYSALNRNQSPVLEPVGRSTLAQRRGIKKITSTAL

| SMILES | Degradation of substrate protein RSK1 (substrate protein remaining %) (RSK1) | Degradation of substrate protein RSK2 (substrate protein remaining %) (RSK2) |
| --- | --- | --- |
| C[C@@H]1CNC(=O)c2cc3ccc(C(=O)Nc4cnn(Cc5ccc(N6CCC(N(C)Cc7cccc(N8CCC(=O)NC8=O)c7)CC6)cc5)c4)nc3n21 [GT-07939, (R)-N-(1-(4-(4-((3-(2,4-dioxotetrahydropyrimidin-1(2H)-yl)benzyl)(methyl)amino)piperidin-1-yl)benzyl)-1H-pyrazol-4-yl)-9-methyl-6-oxo-6,7,8,9-tetrahydropyrido[3',2':4,5]py rrolo[1,2-a]pyrazine-2-carboxamide] | A (A is defined as 0% ≤ substrate protein remaining % ≤ 80%) | B (B is defined as substrate protein remaining % > 80%) |
| C[C@@H]1CNC(=O)c2cc3ccc(C(=O)Nc4cnn(Cc5ccc(N6CCN(Cc7cncc(N8CCC(=O)NC8=O)c7)CC6)cc5)c4)nc3n21 [GT-07925, (R)-N-(1-(4-(4-((5-(2,4-dioxotetrahydropyrimidin-1(2H)-yl)pyridin-3-yl)methyl)piperazin-1-yl)benzyl)-1H-pyrazol-4-yl)-9-methyl-6-oxo-6,7,8,9-tetrahydropyrido[3',2':4,5]py rrolo[1,2-a]pyrazine-2-carboxamide] | A (A is defined as 0% ≤ substrate protein remaining % ≤ 80%) | B (B is defined as substrate protein remaining % > 80%) |
| C[C@@H]1CNC(=O)c2cc3ccc(C(=O)Nc4cnn(Cc5ccc(N6CCC(N(C)Cc7cncc(N8CCC(=O)NC8=O)c7)CC6)cc5)c4)nc3n21 [GT-07945, (R)-N-(1-(4-(4-(((5-(2,4-dioxotetrahydropyrimidin-1(2H)-yl)pyridin-3-yl)methyl)(methyl)amino)piperidin-1-yl)benzyl)-1H-pyrazol-4-yl)-9-methyl-6-oxo-6,7,8,9-tetrahydropyrido[3',2':4,5]py rrolo[1,2-a]pyrazine-2-carboxamide] | A (A is defined as 0% ≤ substrate protein remaining % ≤ 80%) | A (A is defined as 0% ≤ substrate protein remaining % ≤ 80%) |
| C[C@@H]1CNC(=O)c2cc3ccc(C(=O)Nc4cnn(Cc5ccc(NCc6cc(N7CCC(=O)NC7=O)ncc6F)cc5)c4)nc3n21 [GT-07794, (R)-N-(1-(4-(((2-(2,4-dioxotetrahydropyrimidin-1(2H)-yl)-5-fluoropyridin-4-yl)methyl)amino)benzyl)-1H-pyrazol-4-yl)-9-methyl-6-oxo-6,7,8,9-tetrahydropyrido[3',2':4,5]pyrrolo[1,2-a]pyrazine-2-carboxamide] | A (A is defined as 0% ≤ substrate protein remaining % ≤ 80%) | B (B is defined as substrate protein remaining % > 80%) |
| C[C@@H]1CNC(=O)c2cc3ccc(C(=O)Nc4cnn(Cc5ccc(N6CCN(Cc7cnc(N8CCC(=O)NC8=O)cn7)CC6)cc5)c4)nc3n21 [GT-07936, (R)-N-(1-(4-(4-((5-(2,4-dioxotetrahydropyrimidin-1(2H)-yl)pyrazin-2-yl)methyl)piperazin-1-yl)benzyl)-1H-pyrazol-4-yl)-9-methyl-6-oxo-6,7,8,9-tetrahydropyrido[3',2':4,5]py rrolo[1,2-a]pyrazine-2-carboxamide] | A (A is defined as 0% ≤ substrate protein remaining % ≤ 80%) | B (B is defined as substrate protein remaining % > 80%) |
| C[C@@H]1CNC(=O)c2cc3ccc(C(=O)Nc4cnn(Cc5ccc(N6CCN(Cc7cc(N8CCC(=O)NC8=O)cnc7F)CC6)cc5)c4)nc3n21 [GT-07935, (R)-N-(1-(4-(4-((5-(2,4-dioxotetrahydropyrimidin-1(2H)-yl)-2-fluoropyridin-3-yl)methyl)piperazin-1-yl)benzyl)-1H-pyrazol-4-yl)-9-methyl-6-oxo-6,7,8,9-tetrahydropyrido[3',2':4,5]py rrolo[1,2-a]pyrazine-2-carboxamide] | A (A is defined as 0% ≤ substrate protein remaining % ≤ 80%) | B (B is defined as substrate protein remaining % > 80%) |
| C[C@@H]1CNC(=O)c2cc3ccc(C(=O)Nc4cnn(Cc5ccc(N6CCN(Cc7cccc(N8CCC(=O)NC8=O)c7)CC6)cc5)c4)nc3n21 [GT-07928, (R)-N-(1-(4-(4-(3-(2,4-dioxotetrahydropyrimidin-1(2H)-yl)benzyl)piperazin-1-yl)benzyl)-1H-pyrazol-4-yl)-9-methyl-6-oxo-6,7,8,9-tetrahydropyrido[3',2':4,5]py rrolo[1,2-a]pyrazine-2-carboxamide] | A (A is defined as 0% ≤ substrate protein remaining % ≤ 80%) | A (A is defined as 0% ≤ substrate protein remaining % ≤ 80%) |
| C[C@@H]1CNC(=O)c2cc3ccc(C(=O)Nc4cnn(Cc5ccc(N6CCN(Cc7ncc(C8CCC(=O)NC8=O)cc7F)CC6)cc5)c4)nc3n21 (stereo partly drawn) [GT-07933, (9R)-N-(1-(4-(4-((5-(2,6-dioxopiperidin-3-yl)-3-fluoropyridin-2-yl)methyl)piperazin-1-yl)benzyl)-1H-pyrazol-4-yl)-9-methyl-6-oxo-6,7,8,9-tetrahydropyrido[3',2':4,5]py rrolo[1,2-a]pyrazine-2-carboxamide] | A (A is defined as 0% ≤ substrate protein remaining % ≤ 80%) | B (B is defined as substrate protein remaining % > 80%) |
| C[C@@H]1CNC(=O)c2cc3ccc(C(=O)Nc4cnn(Cc5ccc(N6CCN(Cc7cccc(NC8CCC(=O)NC8=O)c7)CC6)cc5)c4)nc3n21 (stereo partly drawn) [GT-07931, (9R)-N-(1-(4-(4-(3-((2,6-dioxopiperidin-3-yl)amino)benzyl)piperazin-1-yl)benzyl)-1H-pyrazol-4-yl)-9-methyl-6-oxo-6,7,8,9-tetrahydropyrido[3',2':4,5]py rrolo[1,2-a]pyrazine-2-carboxamide] | A (A is defined as 0% ≤ substrate protein remaining % ≤ 80%) | A (A is defined as 0% ≤ substrate protein remaining % ≤ 80%) |
| C[C@@H]1CNCc2cc3ccc(C(=O)Nc4cnn(Cc5ccc(N6CCC(N(C)Cc7ccc(N8CCC(=O)NC8=O)nc7)CC6)cc5)c4)nc3n21 [GT-07941, (R)-N-(1-(4-(4-(((6-(2,4-dioxotetrahydropyrimidin-1(2H)-yl)pyridin-3-yl)methyl)(methyl)amino)piperidin-1-yl)benzyl)-1H-pyrazol-4-yl)-9-methyl-6,7,8,9-tetrahydropyrido[3',2':4,5]py rrolo[1,2-a]pyrazine-2-carboxamide] | A (A is defined as 0% ≤ substrate protein remaining % ≤ 80%) | A (A is defined as 0% ≤ substrate protein remaining % ≤ 80%) |
| C[C@@H]1CNC(=O)c2cc3ccc(C(=O)Nc4cnn(Cc5ccc(N6CCC(N7CCN(Cc8ccc(N9CCC(=O)NC9=O)nc8)CC7)CC6)cc5)c4)nc3n21 [GT-07955, (R)-N-(1-(4-(4-(4-((6-(2,4-dioxotetrahydropyrimidin-1(2H)-yl)pyridin-3-yl)methyl)piperazin-1-yl)piperidin-1-yl)benzyl)-1H-pyrazol-4-yl)-9-methyl-6-oxo-6,7,8,9-tetrahydropyrido[3',2':4,5]pyrrolo[1,2-a]pyrazine-2-carboxamide] | A (A is defined as 0% ≤ substrate protein remaining % ≤ 80%) | A (A is defined as 0% ≤ substrate protein remaining % ≤ 80%) |
| C[C@@H]1CNC(=O)c2cc3ccc(C(=O)Nc4cnn(Cc5ccc(N6CCC(N(C)Cc7cncc(C8CCC(=O)NC8=O)c7)CC6)cc5)c4)nc3n21 (stereo partly drawn) [GT-07948, (9R)-N-(1-(4-(4-(((5-(2,6-dioxopiperidin-3-yl)pyridin-3-yl)methyl)(methyl)amino)piperidin-1-yl)benzyl)-1H-pyrazol-4-yl)-9-methyl-6-oxo-6,7,8,9-tetrahydropyrido[3',2':4,5]py rrolo[1,2-a]pyrazine-2-carboxamide] | A (A is defined as 0% ≤ substrate protein remaining % ≤ 80%) | A (A is defined as 0% ≤ substrate protein remaining % ≤ 80%) |
| C[C@@H]1CNC(=O)c2cc3ccc(C(=O)Nc4cnn(Cc5ccc(N6CCC(N(C)Cc7ccnc(N8CCC(=O)NC8=O)c7)CC6)cc5)c4)nc3n21 [GT-07944, (R)-N-(1-(4-(4-(((2-(2,4-dioxotetrahydropyrimidin-1(2H)-yl)pyridin-4-yl)methyl)(methyl)amino)piperidin-1-yl)benzyl)-1H-pyrazol-4-yl)-9-methyl-6-oxo-6,7,8,9-tetrahydropyrido[3',2':4,5]py rrolo[1,2-a]pyrazine-2-carboxamide] | A (A is defined as 0% ≤ substrate protein remaining % ≤ 80%) | A (A is defined as 0% ≤ substrate protein remaining % ≤ 80%) |
